Read-outs that look alike come from different tables or passages of the source.
Columns and labels:
Meligethes Aeneus = test: Field trial, foliar spray against M. aeneus on oil seed rape; type: in vivo
Source text: DISEASE/[…] Aeneus CROP: Oil seed rape (Brassica napus spp. Campino) APPLICATION: Foliar spray EXPERIMENT/TRIAL PROTOCOL: Foliar spray was applied in the field with a motorized sprayer in spring when the insects appeared on the crop (BBCH 38-41). The trial design consisted of a randomized complete block with 4 replications per treatment. The treated area per plot was 30m^2. Used water volume was 300 L/ha. Evaluation was done by counting adult insects per 25 plants. […] Table 5: Efficacy assessment: % efficacy versus untreated (%UNCK) of M. aeneus on B. napus (field)

Fusarium culmorum = test: whole plant or invertebrate; type: in vivo; conditions: Fusarium culmorum, in Triticum aestivum, 144 h, read-out: % Efficacy
[1] = system: Puccinia triticina (PUCCTR); test: Greenhouse trial, seed treatment against PUCCTR in wheat; type: in vivo
Source text: [table] Table 9. Efficacy assessment of pelargonic acid as seed treatment of PUCCTR in wheat (variety Benchmark)

Cacopsylly pyri = test: Field trial, foliar spray against C. pyri on pear trees; type: in vivo; conditions: 650 g/ha
Source text: DISEASE/PEST: Cacopsylly pyri CROP: Pear trees (pyrus communis spp. Williams) APPLICATION: Foliar spray (spring - when 50% of eggs are yellow) EXPERIMENT/TRIAL PROTOCOL: Foliar spray was applied in the field with a motorized sprayer (OleomacSP126) in spring when the insects appeared on the crop (BBCH 72-75). The trial design consisted of a randomized complete block with 4 replications per treatment. The treated area per plot was 24m^2. Used water volume was […]/ha. Evaluation was done by counting nymphs per 10 shoots. […] This is due to the effect on the plant's immune system. […] Table 6. Efficacy assessment: % efficacy versus untreated (%UNCK) of C. pyri on P. communis (field)

S. avenae = test: Aphid survival and sucking on untreated leaves after treating one leaf of Chinese cabbage; type: in vivo; parameters: key to S. avenae sucking: 0=no damage or no sucking observed; 1=some damage or some sucking observed; 3=half leaf eaten or half of aphids sucking the leaf; 5=no leaf left or all insects sucking and reproducing; conditions: for S. avenae sucking: scale 0 - 5
Leptosphaeria maculans = test: Seed treatment lab trial against Leptosphaeria maculans in oilseed rape seedlings; type: in vivo; conditions: Plenodomus lingam, in Brassica napus, 144 h, 6 days after inoculation, read-out: % Efficacy
Source text: [table] Table 8: Efficacy assessment of fatty acids in seed treatment of Leptosphaeria maculans in oilseed rape (variety Helga)

Puccinia triticina = test: Greenhouse trial, foliar treatment against PUCCTR in wheat
[2] = system: Phytophthora infestans (PHYTIN); test: whole plant or invertebrate; type: in vivo; conditions: in Solanum tuberosum, foliar
Plutella xylostella = test: P. xylostella survival and leaf damage on untreated leaves after treating one leaf of Chinese cabbage; type: in vivo; parameters: key to P. xylostella leaf damage: 0=no damage or no sucking observed; 1=some damage or some sucking observed; 3=half leaf eaten or half of aphids sucking the leaf; 5=no leaf left or all insects sucking and reproducing; conditions: for P. xylostella leaf damage: damage scale 0 - 5
Procedure: DISEASE/PEST: Plutella xylostella / Myzus persicae CROP: Chinese cabbage (Brassica rapa subsp. Pekinensis) APPLICATION: FOLIAR on one leaf of the plant EXPERIMENT/TRIAL PROTOCOL: […] Leaves were left to dry for 1 hour. P. xylostella or M. persicae were added to clip cages on non-treated leaves 1 hour or 24 hours after the applied treatment wherein those cages restrict the movement of the insects to the other leaves. Table 2. Effect on survival and leaf damage of P. xylostella and […] on untreated leaves of […].

[3] = seed treatment 3.8 g ai/ton, 11 dai
[4] = seed treatment 7.6 g ai/ton, 11 dai
[5] = seed treatment 38 g ai/ton, 11 dai
[6] = seed treatment 76 g ai/ton, 21 dai
[7] = 0.78 mg on one leaf, insects added 1h after treatment, 6 DAT
[8] = 0.78 mg on one leaf, insects added 1h after treatment, 24h AT
[9] = 0.78 mg on one leaf, insects added 24 h after treatment, 6 DAT
[10] = 0.78 mg on one leaf, insects added 24 h after treatment, 24h AT

CCCCCCCCC(=O)O [Pelargonic acid, pelargonic acid]
% efficacy versus untreated (%UNCK) of M. aeneus on B. napus (field) (Meligethes Aeneus; 650 g/ha, 4DAA): 91 b % | % efficacy versus untreated (%UNCK) of M. aeneus on B. napus (field) (Meligethes Aeneus; 650 g/ha, 8DAA): 89 b % | % efficacy versus untreated (%UNCK) of M. aeneus on B. napus (field) (Meligethes Aeneus; 650 g/ha, 300 L/ha water, 1DAA): 34.60 c % | % efficacy versus untreated (%UNCK) of M. aeneus on B. napus (field) (Meligethes Aeneus; 975 g/ha, 1DAA): 79.25 ab % | % efficacy versus untreated (%UNCK) of M. aeneus on B. napus (field) (Meligethes Aeneus; 975 g/ha, 4DAA): 100 a % | % efficacy versus untreated (%UNCK) of M. aeneus on B. napus (field) (Meligethes Aeneus; 975 g/ha, 8DAA): 100 a % | Emax (Fusarium culmorum): 100% | EFFICACY % ALL LEAVES [1, 3]: 17.3% | EFFICACY % LEAF 1 [1, 3]: 0.0% | EFFICACY % LEAF 2 [1, 3]: 14.3% | EFFICACY % LEAF 3 [1, 3]: 17.6% | EFFICACY % LEAF 4 [1, 3]: 20.0% | EFFICACY % ALL LEAVES [1, 4]: 29.6% | EFFICACY % LEAF 1 [1, 4]: 0.0% | EFFICACY % LEAF 2 [1, 4]: 7.1% | EFFICACY % LEAF 3 [1, 4]: 11.8% | EFFICACY % LEAF 4 [1, 4]: 70.0% | EFFICACY % ALL LEAVES [1, 5]: 6.3% | EFFICACY % LEAF 1 [1, 5]: 0.0% | EFFICACY % LEAF 2 [1, 5]: 7.1% | EFFICACY % LEAF 3 [1, 5]: 11.8% | EFFICACY % LEAF 4 [1, 5]: 0.0% | EFFICACY % ALL LEAVES [1, 6]: 19.2% | EFFICACY % LEAF 1 [1, 6]: 31.8% | EFFICACY % LEAF 2 [1, 6]: 18.9% | EFFICACY % LEAF 3 [1, 6]: 12.0% | EFFICACY % LEAF 4 [1, 6]: 14.0% | % efficacy versus untreated (%UNCK) of C. pyri on P. communis (field) (Cacopsylly pyri; 14 DAA): 56.4 b % | % efficacy versus untreated (%UNCK) of C. pyri on P. communis (field) (Cacopsylly pyri; 21 DAA): 63.1 b % | % efficacy versus untreated (%UNCK) of C. pyri on P. communis (field) (Cacopsylly pyri; 28 DAA): 100 b % | % efficacy versus untreated (%UNCK) of C. pyri on P. communis (field) (Cacopsylly pyri; 800L/ha water, 3 DAA): 83.8 b % | S. avenae sucking (S. avenae; [7]): 4 | S. avenae sucking (S. avenae; [8]): 0 | S. avenae sucking (S. avenae; [9]): 1 | S. avenae sucking (S. avenae; [10]): 4 | S. avenae survival (S. avenae; 0.78 mg on one leaf, insects on non-treated leaves, added 24 h after treatment, 6 DAT): Very small colony | number of S. avenae individuals and sucking (S. avenae; 0.78mg, insects introduced 24h after treatment to an untreated leaf of the same plant): reduction | Emax (Leptosphaeria maculans; seed treatment 0.76 g/ton, % healthy plants vs infected seedlings): 100% | Emax (Leptosphaeria maculans; seed treatment 3.04 g/ton): 80% | Emax (Leptosphaeria maculans; seed treatment 6.08 g/ton): 80% | Emax (Leptosphaeria maculans; seed treatment 7.60 g/ton): 100% | EFFICACY % ALL LEAV ES (Puccinia triticina; foliar 1.52 g ai/ha, 13 dai): 18.6% | EFFICACY % LEAF 1 (Puccinia triticina; foliar 1.52 g ai/ha, 13 dai): 50.0% | EFFICACY % LEAF 2 (Puccinia triticina; foliar 1.52 g ai/ha, 13 dai): 5.9% | EFFICACY % LEAF 3 (Puccinia triticina; foliar 1.52 g ai/ha, 13 dai): 5.9% | EFFICACY % LEAF 4 (Puccinia triticina; foliar 1.52 g ai/ha, 13 dai): 12.5% | EFFICACY % ALL LEAV ES (Puccinia triticina; foliar 7.6 g ai/ha, 21 dai): 23.6% | EFFICACY % LEAF 1 (Puccinia triticina; foliar 7.6 g ai/ha, 21 dai): 28.6% | EFFICACY % LEAF 2 (Puccinia triticina; foliar 7.6 g ai/ha, 21 dai): 17.9% | EFFICACY % LEAF 3 (Puccinia triticina; foliar 7.6 g ai/ha, 21 dai): 29.8% | EFFICACY % LEAF 4 (Puccinia triticina; foliar 7.6 g ai/ha, 21 dai): 18.3% | EFFICACY % ALL LEAV ES (Puccinia triticina; foliar 95 g ai/ha, 13 dai): 11.3% | EFFICACY % LEAF 1 (Puccinia triticina; foliar 95 g ai/ha, 13 dai): 33.3% | EFFICACY % LEAF 2 (Puccinia triticina; foliar 95 g ai/ha, 13 dai): 0.0% | EFFICACY % LEAF 3 (Puccinia triticina; foliar 95 g ai/ha, 13 dai): 11.8% | EFFICACY % LEAF 4 (Puccinia triticina; foliar 95 g ai/ha, 13 dai): 0,0% | EFFICACY % ALL LEAV ES (Puccinia triticina; foliar 760 g ai/ha, 13 dai): 30.5% | EFFICACY % LEAF 1 (Puccinia triticina; foliar 760 g ai/ha, 13 dai): 66.7% | EFFICACY % LEAF 2 (Puccinia triticina; foliar 760 g ai/ha, 13 dai): 11.8% | EFFICACY % LEAF 3 (Puccinia triticina; foliar 760 g ai/ha, 13 dai): 0.0% | EFFICACY % LEAF 4 (Puccinia triticina; foliar 760 g ai/ha, 13 dai): 43.8% | % efficacy ([2]; read-out: ASSESSMENT 7 DAI (% efficacy), foliar 0.76 g/ha): 0.2% | % efficacy ([2]; read-out: ASSESSMENT 7 DAI (% efficacy), foliar 1.14 g/ha): 14% | % efficacy ([2]; read-out: ASSESSMENT 7 DAI (% efficacy), foliar 1.52 g/ha): 20.1% | % efficacy ([2]; read-out: ASSESSMENT 7 DAI (% efficacy), foliar 2.66 g/ha): 23% | % efficacy ([2]; read-out: ASSESSMENT 7 DAI (% efficacy), foliar 3.80 g/ha): 18.6% | % efficacy ([2]; read-out: ASSESSMENT 7 DAI (% efficacy), foliar 5.32 g/ha): 17.7% | % efficacy ([2]; read-out: ASSESSMENT 7 DAI (% efficacy), foliar 7.60 g/ha, inoculated 7 days after treatment): 3% | % efficacy ([2]; read-out: ASSESSMENT 14 DAI (% efficacy), foliar 0.76 g/ha): 0% | % efficacy ([2]; read-out: ASSESSMENT 14 DAI (% efficacy), foliar 1.14 g/ha): 7.9% | % efficacy ([2]; read-out: ASSESSMENT 14 DAI (% efficacy), foliar 1.52 g/ha): 22% | % efficacy ([2]; read-out: ASSESSMENT 14 DAI (% efficacy), foliar 2.66 g/ha): 21.9% | % efficacy ([2]; read-out: ASSESSMENT 14 DAI (% efficacy), foliar 3.80 g/ha): 7% | % efficacy ([2]; read-out: ASSESSMENT 14 DAI (% efficacy), foliar 5.32 g/ha): 16.7% | % efficacy ([2]; read-out: ASSESSMENT 14 DAI (% efficacy), foliar 7.60 g/ha): 5.4% | P. xylostella leaf damage (Plutella xylostella; [7]): 1 | P. xylostella leaf damage (Plutella xylostella; [8]): 1 | P. xylostella leaf damage (Plutella xylostella; [9]): 5 | P. xylostella leaf damage (Plutella xylostella; [10]): 4 | P. xylostella survival (Plutella xylostella; 0.78 mg on one leaf, insects on non-treated leaves, added 1h after treatment, 6 DAT): growth limited to L3 stage | larval maturation and leaf damage in P. xylostella (Plutella xylostella; 0.78mg, insects introduced 1h after treatment to an untreated leaf of the same plant): reduction

From patent publication EP4501112A1, “PLANT DEFENSE ELICITORS” (Globachem NV, priority 2023, dated 2025)
